The values below are quoted from earlier work in patent US7837990B2, “In vivo expanded NKT cells and methods of use thereof” (The Rockefeller University, priority 2005, dated 2010).

One series has as its system NKT cells. The following applies: patients with advanced cancer or healthy volunteers.
The subject of a further series is tumor. The following applies: mouse models.

Turning to `CCCCCCCCCCCCCCCCCCCCCCCCCC(=O)N[C@@H](CO[C@H]1O[C@H](CO)[C@H](O)[C@H](O)[C@H]1O)[C@H](O)[C@H](O)CCCCCCCCCCCCCC` [KRN-7000, α-galactosyl ceramide], the “NKT activation in vivo” value in the series on NKT cells is on record as “transient NKT activation in some individuals”. Moreover, the anti-tumor effect result in the series on tumor is reported as “tumor regression in several mouse models”.
